The target of data set [1] is T1, Metabotropic glutamate receptor 2 (Homo sapiens, UniProt Q14416). Briefly: Potentiation of human mGluR2 expressed in CHO cells assessed as fold shift in glutamate concentration response curve at 3 uM relative to control. The format is cell-based.
Target sequence in this assay (Q14416 19-872 limits assumed): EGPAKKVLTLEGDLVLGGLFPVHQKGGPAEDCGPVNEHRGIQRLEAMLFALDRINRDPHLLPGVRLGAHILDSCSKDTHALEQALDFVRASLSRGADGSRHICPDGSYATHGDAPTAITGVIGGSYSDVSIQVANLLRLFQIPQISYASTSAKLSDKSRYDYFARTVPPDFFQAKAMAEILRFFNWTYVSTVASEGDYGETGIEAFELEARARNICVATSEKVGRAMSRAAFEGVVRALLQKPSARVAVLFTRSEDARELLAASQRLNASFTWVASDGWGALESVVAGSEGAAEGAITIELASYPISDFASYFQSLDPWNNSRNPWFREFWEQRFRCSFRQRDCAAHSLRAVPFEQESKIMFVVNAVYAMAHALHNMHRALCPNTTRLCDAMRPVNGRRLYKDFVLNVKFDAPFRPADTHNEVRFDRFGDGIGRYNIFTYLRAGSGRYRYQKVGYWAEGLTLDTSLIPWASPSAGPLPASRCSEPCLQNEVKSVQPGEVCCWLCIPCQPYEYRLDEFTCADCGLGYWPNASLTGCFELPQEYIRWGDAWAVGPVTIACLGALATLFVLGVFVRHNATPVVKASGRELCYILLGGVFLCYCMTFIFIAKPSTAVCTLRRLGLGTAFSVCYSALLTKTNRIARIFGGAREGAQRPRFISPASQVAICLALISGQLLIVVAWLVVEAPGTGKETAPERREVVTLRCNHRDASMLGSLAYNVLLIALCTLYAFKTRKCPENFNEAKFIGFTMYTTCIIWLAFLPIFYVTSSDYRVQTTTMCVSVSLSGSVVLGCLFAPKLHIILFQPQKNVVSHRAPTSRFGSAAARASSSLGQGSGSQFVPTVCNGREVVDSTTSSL
Data set [2] is described as follows: Drug metabolism in human liver microsomes at 5 uM after 15 mins. The format is ADME. Particulars: read-out: Drug metabolism. (Liver microsomes are a subcellular fraction often used to study metabolism.)
In data set [3] the target is T1, Metabotropic glutamate receptor 2. The data set is described as follows: Positive allosteric modulation of human mGluR2 expressed in CHO cells assessed as incorporation of [35S]GTPgammaS at 0.3 nM to 50 uM after 30 mins by scintillation counting analysis relative to control. It is filed as functional, cell-based.
Target sequence in this assay (Q14416 19-872 limits assumed): as above
For data set [4] the target is unchanged. The data set is described as follows: Positive allosteric modulation of human mGluR2 expressed in CHO cells assessed as incorporation of [35S]GTPgammaS after 30 mins by scintillation counting analysis. The format is functional, cell-based.
Target sequence in this assay (Q14416 whole entry): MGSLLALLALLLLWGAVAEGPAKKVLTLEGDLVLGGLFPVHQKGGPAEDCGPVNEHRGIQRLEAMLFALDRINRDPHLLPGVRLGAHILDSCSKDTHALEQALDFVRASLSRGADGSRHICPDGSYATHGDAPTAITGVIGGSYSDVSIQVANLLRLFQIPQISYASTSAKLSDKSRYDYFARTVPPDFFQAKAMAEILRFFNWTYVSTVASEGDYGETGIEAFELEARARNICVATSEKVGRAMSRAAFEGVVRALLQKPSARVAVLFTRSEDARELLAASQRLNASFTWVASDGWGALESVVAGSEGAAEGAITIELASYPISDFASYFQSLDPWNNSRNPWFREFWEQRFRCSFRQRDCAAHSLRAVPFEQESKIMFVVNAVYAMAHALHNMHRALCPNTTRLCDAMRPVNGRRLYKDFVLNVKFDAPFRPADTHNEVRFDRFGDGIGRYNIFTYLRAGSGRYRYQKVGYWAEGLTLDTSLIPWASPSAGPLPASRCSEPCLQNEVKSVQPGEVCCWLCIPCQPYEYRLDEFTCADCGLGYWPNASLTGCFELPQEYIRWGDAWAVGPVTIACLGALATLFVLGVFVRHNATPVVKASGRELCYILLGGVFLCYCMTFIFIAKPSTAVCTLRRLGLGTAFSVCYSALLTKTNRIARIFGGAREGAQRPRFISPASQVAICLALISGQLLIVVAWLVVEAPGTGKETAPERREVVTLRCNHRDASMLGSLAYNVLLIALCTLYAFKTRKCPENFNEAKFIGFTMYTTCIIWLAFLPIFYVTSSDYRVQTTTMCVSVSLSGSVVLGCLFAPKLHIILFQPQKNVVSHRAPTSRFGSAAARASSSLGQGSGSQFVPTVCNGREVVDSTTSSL
For data set [5] the target is unchanged. Briefly: Positive allosteric modulation of mGluR2 (unknown origin) by FLIPR assay.
Target sequence in this assay (Q14416 whole entry): as above

One may read the Emax as the greatest response seen or fitted, relative to the assay's reference. As a reminder, the EC50 is the concentration that produces a half-maximal response. Regarding `CCCn1ccc2c(NCc3ccccc3Cl)cccc2c1=O`, the fold change (FC) in data set [1] worked out at 6.6. Besides, the metabolised at 0.25 h, 5 µM in data set [2] was 26%. In data set [3], the Emax worked out at 163%. Further, the EC50 in data set [4] is 200 nM.

Turning to `CCCn1ccc2c(NCCc3ccccc3OC)cccc2c1=O`, the metabolised at 0.25 h, 5 µM in data set [2] worked out at 91%. The Emax in data set [3] is 137%. In data set [4], the EC50 is 126 nM.

Take `CCCn1ccc2c(N(C)CCc3ccc(OC)cc3)cccc2c1=O`: the Emax in data set [3] came to 93%. The EC50 in data set [4] is 398 nM.

`CCCn1ccc2c(NCc3cccc(OC)c3)cccc2c1=O`: the Emax in data set [3] stood at 129%. Besides, the EC50 in data set [4] was 316 nM.

Turning to `CCCn1ccc2c(NCc3ccc(OC)cc3)cccc2c1=O`, the Emax in data set [3] stood at 81%. Moreover, the EC50 in data set [4] was 501 nM.

In the case of `CCCn1ccc2c(NCCc3ccc(OC)cc3)cccc2c1=O`, the metabolised at 0.25 h, 5 µM in data set [2] is 97%. Moreover, the Emax in data set [3] was 92%. Further, the EC50 in data set [4] was 251 nM.

Regarding `CCCn1ccc2c(OCCc3ccc(OC)cc3)cccc2c1=O`, the Emax in data set [3] was found to be 123%. Besides, the EC50 in data set [4] was 251 nM.

For `CCCn1ccc2c(NCc3ccccc3)cccc2c1=O`, in data set [2], the metabolised at 0.25 h, 5 µM was 38%. Besides, the Emax in data set [3] worked out at 80%. Moreover, in data set [4], the half-maximal effective concentration (EC50) is 2000 nM.

In the case of `CCCn1ccc2c(NCCc3ccccc3)cccc2c1=O`, the metabolised at 0.25 h, 5 µM in data set [2] stood at 52%. Further, the Emax in data set [3] is 123%. Moreover, the values for the EC50 in data set [5] and in data set [4] were 158 nM and 501 nM, respectively.

For `CCCn1ccc2c(NCCc3cccc(OC)c3)cccc2c1=O`, the Emax in data set [3] stood at 110%. Besides, the EC50 in data set [4] is 251 nM.

With `CCCn1ccc2c(NCCCc3ccccc3)cccc2c1=O`, the metabolised at 0.25 h, 5 µM in data set [2] came out at 57%. In data set [3], the Emax was found to be 112%. Also, the EC50 in data set [4] is 158 nM.

Consider `CCCn1ccc2c(NCc3cccc(Oc4ccccc4)c3)cccc2c1=O`, for which the Emax in data set [3] was 65%. Also, the EC50 in data set [4] was 1260 nM.

As to `CCCn1ccc2c(NCCc3ccc(C)cc3)cccc2c1=O`, the Emax in data set [3] came out at 134%. The EC50 in data set [4] is 200 nM.

In the case of `CCCn1ccc2c(NCc3cccc(OC(F)(F)F)c3)cccc2c1=O`, the metabolised at 0.25 h, 5 µM in data set [2] came to 34%. Further, in data set [3], the Emax is 162%. Moreover, in data set [4], the EC50 was 200 nM.

For the compound `CCCn1ccc2c(NCCc3ccccc3)ccc(Cl)c2c1=O`, the maximum response (Emax) in data set [3] was found to be 68%. For the same compound, the EC50 in data set [4] is 251 nM.

For the origin of these results see ChEMBL document CHEMBL3217606, “New positive allosteric modulators of the metabotropic glutamate receptor 2 (mGluR2). Identification and synthesis of N-propyl-5-substituted isoquinolones” (Medchemcomm, 2011).
